According to ChEMBL document CHEMBL1158735, “Manoyl oxide diterpenoids from Grindelia scorzonerifolia” (2005):
≈ marks a conversion by molar mass, not a printed value.

Key:
Type in all cases: functional
Spodoptera frugiperda [1] = assay: Insecticidal activity against third instar larvae of Spodoptera frugiperda assessed as malformation and mortality at 100 ppm administered through larval diet
Staphylococcus aureus [2] = assay: Antibacterial activity against methicillin-resistant Staphylococcus aureus F7 after 24 hrs by broth microdilution method
Staphylococcus aureus [3] = assay: Antibacterial activity against Staphylococcus aureus ATCC 6538P after 24 hrs by broth microdilution method
Spodoptera frugiperda [4] = assay: Effect on feeding preference of third instar larvae of Spodoptera frugiperda assessed as food consumption at 100 ppm administered through larval diet by feeding election test relative to control

## C=C[C@@]1(C)CC[C@@H]2[C@@]3(C)CCC[C@@](C)(CO[C@@H]4OC[C@H](O)[C@H](O)[C@H]4O)[C@@H]3CC[C@@]2(C)O1
Spodoptera frugiperda [1]
  Activity: 80%
Staphylococcus aureus [2]
  MIC: 1250 µg/mL (≈ 2.85 mM)
Staphylococcus aureus [3]
  MIC: 2000 µg/mL (≈ 4.56 mM)
Spodoptera frugiperda [4]
  Activity: 1
